From ChEMBL document CHEMBL6153024, “A novel life for antitumor combretastatins: Recent developments of hybrids, prodrugs, combination therapies, and antibody-drug conjugates” (Eur J Med Chem, 2025) come the findings set out here.

In this experiment the test system is HT-29. Kind of experiment: Anticancer activity against human HT-29 cells. Conditions: pooled result: one value given for 4 cell lines, strains, targets or settings. Format: functional, cell-based.

`COc1ccc(C2=C(c3cc(I)c(OC)c(I)c3)C(=O)OC2)cc1` registered an IC50 of 258 nM.

Broadly, the IC50 is the concentration that gives 50% inhibition.
